Test results taken from ChEMBL document CHEMBL1201862, “PubChem BioAssay data set” (2004).
Calls of active or inactive are those of the source.

What was measured:
[1] = Counterscreen for AddAB inhibitors: absorbance-based bacterial cell-based high throughput dose response assay for inhibitors of bacterial viability. [Related pubchem assays (depositor defined):AID435030, AID449728, AID449731, AID488942, AID488955, AID488956]; assay type: functional
[2] = target: T1, Exodeoxyribonuclease V (Escherichia coli (strain K12), UniProt P04993+P07648+P08394); test: RecBCD inhibition via phage-restricted bacterial growth – absorbance, V66 E. coli, mutant T4 phage, counter-screen for AddAB inhibitor project, dose response (AID 492957); assay type: functional, cell-based, Escherichia coli str. K-12 substr. MG1655
T1 sequence (P04993 whole entry): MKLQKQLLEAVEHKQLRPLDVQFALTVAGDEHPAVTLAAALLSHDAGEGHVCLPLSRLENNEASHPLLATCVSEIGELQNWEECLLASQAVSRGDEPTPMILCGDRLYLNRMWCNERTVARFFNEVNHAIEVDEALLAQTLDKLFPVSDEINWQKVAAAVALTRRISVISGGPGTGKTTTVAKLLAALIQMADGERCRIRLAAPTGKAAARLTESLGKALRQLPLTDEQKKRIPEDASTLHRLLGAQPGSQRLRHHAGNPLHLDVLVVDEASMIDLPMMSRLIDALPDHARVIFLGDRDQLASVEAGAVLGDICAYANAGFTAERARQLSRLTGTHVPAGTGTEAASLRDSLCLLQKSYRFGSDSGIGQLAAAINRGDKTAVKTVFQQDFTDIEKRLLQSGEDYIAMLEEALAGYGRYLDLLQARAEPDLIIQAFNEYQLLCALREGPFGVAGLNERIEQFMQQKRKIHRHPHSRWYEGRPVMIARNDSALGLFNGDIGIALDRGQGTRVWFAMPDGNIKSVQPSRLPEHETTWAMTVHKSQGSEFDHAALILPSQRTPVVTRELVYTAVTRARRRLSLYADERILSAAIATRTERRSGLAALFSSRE
T1 sequence (P07648 whole entry): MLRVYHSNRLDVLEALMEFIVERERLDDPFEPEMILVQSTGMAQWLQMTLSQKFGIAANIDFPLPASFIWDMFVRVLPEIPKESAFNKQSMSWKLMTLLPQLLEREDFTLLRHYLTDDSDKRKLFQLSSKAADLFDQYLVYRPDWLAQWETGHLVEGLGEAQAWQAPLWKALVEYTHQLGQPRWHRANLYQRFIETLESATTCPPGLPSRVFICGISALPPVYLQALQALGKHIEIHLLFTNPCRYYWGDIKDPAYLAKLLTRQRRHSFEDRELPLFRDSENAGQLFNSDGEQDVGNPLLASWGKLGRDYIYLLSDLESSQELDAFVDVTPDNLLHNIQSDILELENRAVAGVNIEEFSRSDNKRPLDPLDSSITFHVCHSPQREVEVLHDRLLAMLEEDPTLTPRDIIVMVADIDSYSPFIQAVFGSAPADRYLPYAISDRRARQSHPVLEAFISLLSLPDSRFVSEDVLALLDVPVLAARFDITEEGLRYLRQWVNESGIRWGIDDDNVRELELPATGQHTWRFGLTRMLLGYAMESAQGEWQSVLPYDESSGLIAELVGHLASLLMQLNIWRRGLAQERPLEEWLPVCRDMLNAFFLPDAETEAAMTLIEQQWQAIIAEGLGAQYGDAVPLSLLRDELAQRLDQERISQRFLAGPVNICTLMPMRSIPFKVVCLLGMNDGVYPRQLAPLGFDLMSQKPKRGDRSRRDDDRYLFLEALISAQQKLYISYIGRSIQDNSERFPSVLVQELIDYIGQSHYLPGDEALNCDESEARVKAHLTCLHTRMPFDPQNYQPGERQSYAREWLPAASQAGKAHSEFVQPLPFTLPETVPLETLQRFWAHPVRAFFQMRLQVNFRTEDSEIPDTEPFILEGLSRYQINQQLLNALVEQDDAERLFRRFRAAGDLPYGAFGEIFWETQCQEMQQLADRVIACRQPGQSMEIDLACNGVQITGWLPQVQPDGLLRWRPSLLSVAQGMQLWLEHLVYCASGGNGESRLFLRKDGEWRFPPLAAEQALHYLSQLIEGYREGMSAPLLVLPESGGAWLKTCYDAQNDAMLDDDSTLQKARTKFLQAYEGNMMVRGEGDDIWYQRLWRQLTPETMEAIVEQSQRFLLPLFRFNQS
T1 sequence (P08394 whole entry): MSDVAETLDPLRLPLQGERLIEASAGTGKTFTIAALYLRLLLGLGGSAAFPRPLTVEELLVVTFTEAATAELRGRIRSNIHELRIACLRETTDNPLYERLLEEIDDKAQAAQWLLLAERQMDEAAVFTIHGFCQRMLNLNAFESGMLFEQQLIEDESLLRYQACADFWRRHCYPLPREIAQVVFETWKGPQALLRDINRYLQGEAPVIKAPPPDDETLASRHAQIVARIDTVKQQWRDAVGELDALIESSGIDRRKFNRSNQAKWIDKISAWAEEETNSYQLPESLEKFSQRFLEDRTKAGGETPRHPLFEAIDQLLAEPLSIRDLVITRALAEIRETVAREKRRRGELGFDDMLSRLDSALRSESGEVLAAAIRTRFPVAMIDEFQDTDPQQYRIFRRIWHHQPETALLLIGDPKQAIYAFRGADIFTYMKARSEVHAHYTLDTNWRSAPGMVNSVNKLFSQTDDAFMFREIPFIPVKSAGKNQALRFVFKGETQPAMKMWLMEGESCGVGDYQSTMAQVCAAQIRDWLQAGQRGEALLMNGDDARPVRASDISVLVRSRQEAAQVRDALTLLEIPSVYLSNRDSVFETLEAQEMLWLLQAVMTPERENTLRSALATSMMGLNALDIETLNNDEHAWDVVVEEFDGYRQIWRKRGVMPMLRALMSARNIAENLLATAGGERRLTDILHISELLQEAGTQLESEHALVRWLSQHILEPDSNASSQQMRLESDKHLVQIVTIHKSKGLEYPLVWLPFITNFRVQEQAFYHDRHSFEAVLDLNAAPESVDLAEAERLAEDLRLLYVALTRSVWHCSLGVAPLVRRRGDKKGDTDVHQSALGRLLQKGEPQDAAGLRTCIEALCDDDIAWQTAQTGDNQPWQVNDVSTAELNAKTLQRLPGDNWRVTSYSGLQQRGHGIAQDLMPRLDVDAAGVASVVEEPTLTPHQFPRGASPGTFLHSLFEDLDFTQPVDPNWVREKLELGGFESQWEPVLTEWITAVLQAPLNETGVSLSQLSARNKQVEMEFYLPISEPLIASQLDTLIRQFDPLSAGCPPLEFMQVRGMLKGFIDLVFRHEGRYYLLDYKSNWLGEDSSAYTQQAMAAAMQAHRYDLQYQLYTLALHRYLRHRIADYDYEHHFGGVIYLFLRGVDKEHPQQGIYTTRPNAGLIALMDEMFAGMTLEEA

[3] = target: Heat shock protein HSP 90-alpha (Homo sapiens, UniProt P07900); assay type: functional, organism-based
[4] = tested on: INS1; test: INS-1E survival protection against cytokine death – cell-based, luminescence, retest, dose response (AID 449756); assay type: functional; settings: Rattus norvegicus;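 also: cell death triggered by IL-1 beta plus TNF-alpha plus IFN-gamma mixture; protective hits raise ATP signal compared with cytokine alone wells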

COc1cccc(/C=N/Nc2ccc([N+](=O)[O-])cn2)c1O
IC50 [1]: > 118 µM (inactive)
IC50 [2]: > 118 µM (inactive)
AC50 [3]: 3.85 µM (active)
AC50 [4]: 2.14 µM (active)

Oc1c(C(c2ccccc2Cl)N2CCCC2)ccc2cccnc12 (centres undefined)
IC50 [1]: 95.3 µM (inactive)
IC50 [2]: 102 µM (inactive)
AC50 [3]: 3.34 µM (active)
AC50 [4]: 3.41 µM (active)

CCc1ccc(S(=O)(=O)/N=C2\C=C(Nc3ccc(C(=O)O)cc3)C(=O)c3ccccc32)cc1
AC50 [4]: 11.3 µM (active)
